Experimental data reported in patent publication US7351744B2, “Naphthalene derivatives as termite repellents and toxicants” (Board of Supervisors of Louisiana State University and …, priority 2003, dated 2008).

Tested on: C. formosanus workers and soldiers
Assay: Topical application toxicity assay
Assay type: in vivo, Coptotermes formosanus
Method: Dose-mortality data were analyzed using probit analysis as adapted for PC use (POLO-PC), which automatically corrected for control mortality using Abbott's transformation. See, e.g., R. M Russell et al., “POLO: a new computer program for probit analysis,” Bull. Entomol. Soc. Am., vol. 23, pp. 209-213 (1977); and LeOra Software, “POLO-PC, a user's guide to probit analysis or logit analysis” (1987). The LD50s of workers and soldiers from four tested colonies (y) were plotted against the average weight of tested termites (x) to establish a linear regression equation and conduct correlation analyses. Mean survival, food consumption and tunnel areas were compared among treatments using analysis of variance (ANOVA), followed by least significant difference procedures. See, SAS Institute, SAS/STAT User's Guide: version 8, SAS Institute, Inc., Cary, N.C. (1999). In two-choice assays using either treated filter paper or treated sand, the parameters measured in the two lateral sides of each treatment were compared using paired t-tests. All data were judged at α=0.05.
Acute toxicity of 2′-acetonaphthone was bioassayed using doses that ranged from 1.25 to 20 ug/termite. At stock solution of 2′-acetonaphthone was prepared ([…]). Dilutions were made by taking aliquots from the stock solution (62.5, 125, 250, 375, 500, 750, and 1000 μl), and adjusting each volume to 2 ml with acetone. A group of 20 workers or soldiers (from colonies BS, WB, E and CR) were placed in a Petri dish (6 cm×1.5 cm) and chilled on top of an ice brick (30.32 cm×17.78 cm×3.81 cm; IceBerg, Mid-Lands Chemical Company, Inc., Miami, Fla.) to slow their movement. Each termite was treated with a topical dose in 0.2 μl acetone to the dorsum of the mesothorax using a Hamilton PB 600 Repeating Dispenser equipped with a 10 μl syringe (Hamilton, Reno, Nev.). The experimental termites were treated with doses equivalent to 1.25, 2.50, 5.0, 7.5, 10.0, 15.0, and 20.0 μg/termite. Control termites were dosedwith only 0.2 μl acetone. Five replicates, each with 20 workers or 20 soldiers, were used for each dose and control. For each replicate, termites were maintained in a plastic container (5.5 cm×3.7 cm, Pioneer Pckaging Co., North Dixon, Ky.), each provided with a filter paper (Whatman #2, 55 mm diameter) wetted with 250 μl double distilled water (DDH20). The containers were covered with lids, and kept for 2 days at room temperature (26-28° C.). Daily mortality in each dish was recorded. Termites were considered dead if unable to right themselves when prodded with a fine paint brush.

In the case of CC(=O)c1ccc2ccccc2c1 [2′-acetonaphthone], the “LD50 (95% CL)” value (colony BS, 24 hours, Soldier) is reported as 3.24 (2.27-4.24) μg/termite, the “LD90 (95% CL)” value (colony BS, 24 hours, Soldier) is reported as 13.60 (8.86-15.01) μg/termite and the “LD50 (95% CL)” value (colony BS, 24 hours, Worker) is reported as 2.21 (1.91-2.49) μg/termite. For the same molecule, the “LD90 (95% CL)” value (colony BS, 24 hours, Worker) was 7.11 (6.14-8.58) μg/termite, the “LD50 (95% CL)” value (colony BS, 48 hours, Soldier) was 2.02 (1.49-2.46) μg/termite and the “LD90 (95% CL)” value (colony BS, 48 hours, Soldier) was 4.07 (3.37-5.37) μg/termite. The “LD50 (95% CL)” value (colony BS, 48 hours, Worker) was 1.74 (1.49-1.96) μg/termite, the “LD90 (95% CL)” value (colony BS, 48 hours, Worker) was 4.19 (3.73-4.83) μg/termite and the “LD50 (95% CL)” value (colony CR, 24 hours, Soldier) was 3.49 (2.49-4.51) μg/termite. For the same molecule, the “LD90 (95% CL)” value (colony CR, 24 hours, Soldier) was 8.09 (5.94-16.01) μg/termite, the “LD50 (95% CL)” value (colony CR, 24 hours, Worker) was 2.93 (2.24-3.59) μg/termite and the “LD90 (95% CL)” value (colony CR, 24 hours, Worker) was 7.23 (5.59-11.34) μg/termite. The “LD50 (95% CL)” value (colony CR, 48 hours, Soldier) was 2.02 (1.48-2.48) μg/termite, the “LD90 (95% CL)” value (colony CR, 48 hours, Soldier) was 4.26 (3.45-5.92) μg/termite and the “LD50 (95% CL)” value (colony CR, 48 hours, Worker) was 2.67 (1.87-3.35) μg/termite. For the same molecule, the “LD90 (95% CL)” value (colony CR, 48 hours, Worker) was 6.09 (4.85-8.82) μg/termite, the “LD50 (95% CL)” value (colony E, 24 hours, Soldier) was 5.12 (3.99-7.24) μg/termite and the “LD90 (95% CL)” value (colony E, 24 hours, Soldier) was 14.06 (9.51-19.26) μg/termite. The “LD50 (95% CL)” value (colony E, 24 hours, Worker) was 7.24 (5.22-9.36) μg/termite, the “LD90 (95% CL)” value (colony E, 24 hours, Worker) was 19.69 (14.02-25.58) μg/termite and the “LD50 (95% CL)” value (colony E, 48 hours, Soldier) was 4.19 (3.14-6.20) μg/termite. The “LD90 (95% CL)” value (colony E, 48 hours, Soldier) was 12.32 (8.23-15.32) μg/termite, the “LD50 (95% CL)” value (colony E, 48 hours, Worker) was 3.82 (2.68-5.83) μg/termite and the “LD90 (95% CL)” value (colony E, 48 hours, Worker) was 11.77 (7.66-17.79) μg/termite. For the same molecule, the “LD50 (95% CL)” value (colony WB, 24 hours, Soldier) was 2.16 (0.56-6.23) μg/termite, the “LD90 (95% CL)” value (colony WB, 24 hours, Soldier) was 5.48 (1.42-15.81) μg/termite and the “LD50 (95% CL)” value (colony WB, 24 hours, Worker) was 1.75 (0.76-2.76) μg/termite. For the same molecule, the “LD90 (95% CL)” value (colony WB, 24 hours, Worker) was 6.33 (3.71-12.46) μg/termite, the “LD50 (95% CL)” value (colony WB, 48 hours, Soldier) was 2.17 (0.49-5.76) μg/termite and the “LD90 (95% CL)” value (colony WB, 48 hours, Soldier) was 5.59 (1.23-14.49) μg/termite. The “LD50 (95% CL)” value (colony WB, 48 hours, Worker) was 1.71 (0.42-1.95) μg/termite, the “LD90 (95% CL)” value (colony WB, 48 hours, Worker) was 3.09 (2.70-3.72) μg/termite and the “48 h-LD90” value (soldiers, range over the four colonies) was 4.07-12.32 μg/soldier.
